Legend:
T lymphocyte = T lymphocyte proliferative response to HIV-specific protein (p24) in HIV seropositive subjects; type: cell-based, human; conditions: FIG. 11
From the text: FIG. 11 is a graph showing T lymphocyte proliferative response in HIV seropositive subjects to a specific recall antigen (Candida albicans) and to an HIV-specific protein (p24) before and after ddAdo treatment.

[1] = system: PBMC from HIV seropositive subjects; test: Intracellular cAMP in PBMC from HIV seropositive subjects; type: cell-based, human
Procedure: The compound 2′,5′ dideoxyadenosine (ddAdo) inhibits adenylate cyclase, the enzyme responsible for the generation of cAMP, by competition for the “P”-binding site (Johnson, J Biochem (1990) 265:11595-11600). […] In one such experiment (FIG. 9A), the intracellular cAMP level decreased to normal levels within 4 hours and remained at this level when tested after 20 hours. The effect of ddAdo was compared with two other adenylate cyclase inhibitors which are naturally occurring adenosine phosphates. When used in equal concentrations, the three inhibitors gave similar reductions in intracellular CAMP levels. For example, when added in 10 ng/ml for 10 min, ddAdo decreased the CAMP levels from 5.3 pmol/10^6 PBMC to 3.6; 3′ AMP to 3.5; and 2′,3′deoxy-AMP reduced the level to 3.2 pmol/10^6 PBMC.
cAMP was determined using a commercial scintillation proximity RIA (Amersham, Arlington Heights, Ill.) following the manufacturer's protocol. PKA activity was determined using a kit from Gibco (Grand Island, N.Y.) and the manufacturer's protocol. For the cAMP assay, cells were lysed and sonicated in assay buffer (provided with the kits). Proliferative assays were performed as described above.
Further purification was achieved by reverse phase chromatography. 3 ml of above solution was applied on C18 Sep-Pak cartridge (Waters) equilibrated with water+0.1% TFA. The column was washed with H2O-TFA until absorbance at 280nm reached baseline. Bound material was eluted from the column by stepwise elution with H2O-acetonitrile-TFA mixtures. There were three peaks on elution curve at 20%, 40% and 70% acetonitrile. The effluent from the above step was rechromatographed again on C18 cartridge and yielded additional quantities of the three products. […] Fraction 2 was added in various PBS dilutions to lymphocytes from HIV seropositive subjects. cAMP was then measured on lysates of these cells after 1 hour.

[2] = Personal Communication; cited from earlier work
Raji cells = test: Cytotoxic T-cell 51Cr-release assay against Raji cells; type: cell-based, human
Procedure: Cytotoxic T-cells from HIV seropositive subjects “regained” their normal ability to lyse allogenic tumor cell line in the presence of ddAdo as shown in FIG. 10B. In this experiment, ddAdo was added either during the six days of generation/priming (middle column of FIG. 10B) or during the three hour cytotoxic assay (right column of FIG. 10B). The cytotoxic assay used was a standard assay. Briefly, 10^6 PBMC were primed and irradiated (3000 Rad) Raji B-lymphoblastoid cells (8:1 ratio) for six days and added to triplicates of ^51Cr-labeled target Raji cells in effector target ratios from 6.25 to 50. ^51Cr released to the supernatant was measured in a gamma counter. Percentage of specific ^51Cr-release was calculated as 100×(released by PBMC−spontaneous release)/(maximum release with Triton X−spontaneous release). ddAdo was added in concentrations of 10 or 100 ng/ml either during priming or lysis.

[3] = system: PBMC from HIV seropositive subjects; test: Proliferative response to Candida albicans, PBMC from HIV seropositive subjects; type: cell-based, human
Procedure: (§1) Proliferative assays were done in triplicates of 50,000 PBMC in 200 μL RPMI with 10% FCS and 8 μg/ml of Candida albicans. ddAdo was added in two-fold dilutions; tritiated thymidine was added at day 5 and cells were harvested at day 6. Concentrations of ddAdo from 12.5 to 50 ng/ml gave the highest responses. […] Ratio 1:12 gave 48% (±12) without and 76% (±9) with ddAdo during priming. Ratio 1:25 gave 61% (±15) without and 77% (±9) with ddAdo.

[4] = system: PBMC from HIV seronegative controls; test: Proliferative response to Candida albicans, HIV seronegative controls; type: cell-based, human; conditions: seven HIV seronegative controls; without ddAdo 6600 (±2000)
Procedure: as §1

PBMC = test: Proliferative response to PHA after preincubation with HIV components; type: cell-based, human; conditions: HIV components 1 hour, wash, ddAdo 10 minutes, 5 of 5 experiments, FIG. 7
Procedure: (§2) Proliferative assays were performed as previously described (see, for example, Hofmann, B., et al., Cell Immunol (1989) 121:336-48. Briefly, one microcurie ^3H-thymidine was added to cultures 72 hours after stimulation, and after further 24 hours, all cultures were harvested on glass fiber filters with an automatic harvesting machine (Skatron, Lierbyen, Norway), and the incorporated radioactivity was measured in a liquid scintillation counter (Beckman LS 1800) after an addition of 1.5 ml scintillation fluid.
HIV components were added to PBMC for 1 hour followed by washing and then treating the cells with dideoxyadenosine (ddAdo) for 10 minutes, again followed by washing. Under these circumstances, the proliferative response to PHA could be restored (FIG. 7).

[5] = system: PBMC from an HIV seropositive subject; test: Proliferative response to PHA of PBMC from HIV seropositive subjects; type: cell-based, human
Procedure: as §2

Which “T lymphocyte responses directed against HIV” value (T lymphocyte) does the source give for `C[C@H]1O[C@@H](n2cnc3c(N)ncnc32)C[C@@H]1O` [ddAdo, 2′,5′ dideoxyadenosine] here?
The value was “restores/increases”.

And the cAMP levels ([1]; 10 ng/ml for 10 min, decreased from 5.3)?
The cAMP levels was 3.6 pmol/10^6 PBMC.

What about the “Time for intracellular cAMP level to decrease to normal levels” value ([1]; added for 10 minutes followed by washing, remained at this level after 20 hours, FIG. 9A) of the same compound?
Its value is no more than 4 h.

And the Antiviral effect [2]?
Its Antiviral effect is “no antiviral effect”.

What about the “Ability of cytotoxic T-cells from HIV seropositive subjects to lyse allogenic tumor cell line” value (Raji cells; 10 or 100 ng/ml during priming or lysis, FIG. 10B) of the same compound?
The value was “regained”.

What about the “Effect on target lysis by HIV seronegative cells” value (Raji cells; HIV seronegative subjects) of the same compound?
The value was “minimal effect”.

What about the “Target lysis (specific ^51Cr-release)” value (Raji cells; Ratio 1:12, ddAdo during priming, without 48% (±12)) of the same compound?
Its value is 76%.

And the “Target lysis (specific ^51Cr-release)” value (Raji cells; Ratio 1:25, without 61% (±15))?
Its value is 77%.

What about the “Responses to Candida albicans (mean and SEM)” value ([3]; 14 HIV seropositive subjects, increased from 2900 (±1300)) of the same compound?
The value was 6100 (±1600) cpm.

And the “Responses to Candida albicans” value ([3]; some HIV seropositive subjects, increased from less than 1000 cpm, FIG. 10A)?
The value was “about 10,000 cpm”.

What about the “Responses to Candida albicans” value [4] of the same compound?
Its value is 7600 (±1.9) cpm.

And the “Proliferative response to PHA” value (PBMC)?
The value was “restored”.

What about the “Proliferative response to PHA” value [5] of the same compound?
Its value is “improved”.

Reference: patent US6429208B1, “Methods and compositions for restoring impaired cellular immune function” (Regents of the University of California, priority 1992, dated 2002)
